Measurements reported in patent publication US11345712B2, “Protein-targeting compounds and pharmaceutical compositions thereof, and their therapeutic applications” (BioTheryX, Inc., priority 2019, dated 2022).

What follows are compounds tested on MOLM-13 cells (assay: MOLM-13 cell viability assay (CellTiter-Glo)). Conditions: Homo sapiens, MOLM-13, 72 h, 3 days, concentration of 1 μM, read-out: Antiproliferative Activity (inhibition, MOLM-13 cell viability).
Assay type: cell-based
In short: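 MOLM-13 AML cells in RPMI 1640 with 10% FBS, seeded at 2,500 cells/well and exposed to compound or DMSO for 3 days at 37° C, 5% CO2. Viability read as CellTiter-Glo luminescence after 10 min shaking.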

| SMILES | cytotoxicity at 1 µM |
| --- | --- |
| Cc1ccc(C=CC(=O)NCc2cc3c(s2)C(=O)N(C2CCC(=O)NC2=O)C3)cc1Cl (stereo not shown) [II-33, 3-(3-chloro-4-methylphenyl)-N-((5-(2,6-dioxopiperidin-3-yl)-6-oxo-5,6-dihydro-4H-thieno[2,3-c]pyrrol-2-yl)methyl)propenamide] | < 25% |
| Cc1ccc(C=CC(=O)NCc2scc3c2CN(C2CCC(=O)NC2=O)C3=O)cc1Cl (stereo not shown) [II-34, 3-(3-chloro-4-methylphenyl)-N-((5-(2,6-dioxopiperidin-3-yl)-4-oxo-5,6-dihydro-4H-thieno[3,4-c]pyrrol-1-yl)methyl)propenamide] | > 80% |
| O=C1CCC(N2Cc3cc(CNC(=O)NCc4c(Cl)cccc4Cl)sc3C2=O)C(=O)N1 (stereo not shown) [II-36, 1-(2,6-dichlorobenzyl)-3-((5-(2,6-dioxopiperidin-3-yl)-6-oxo-5,6-dihydro-4H-thieno[2,3-c]pyrrol-2-yl)methyl)urea] | 50 to 80% |
| O=C1CCC(N2Cc3c(csc3CNC(=O)NCc3c(Cl)cccc3Cl)C2=O)C(=O)N1 (stereo not shown) [II-37, 1-(2,6-dichlorobenzyl)-3-((5-(2,6-dioxopiperidin-3-yl)-4-oxo-5,6-dihydro-4H-thieno[3,4-c]pyrrol-1-yl)methyl)urea] | > 80% |
| Cc1ccc(C(F)(F)C(=O)NCc2cc3c(s2)C(=O)N(C2CCC(=O)NC2=O)C3)cc1Cl (stereo not shown) [II-38, 2-(3-chloro-4-methylphenyl)-N-((5-(2,6-dioxopiperidin-3-yl)-6-oxo-5,6-dihydro-4H-thieno[2,3-c]pyrrol-2-yl)methyl)-2,2-difluoroacetamide] | < 25% |
| Cc1ccc(NC(=S)NCc2cc3c(s2)C(=O)N(C2CCC(=O)NC2=O)C3)cc1Cl (stereo not shown) [II-39, 1-(3-chloro-4-methylphenyl)-3-((5-(2,6-dioxopiperidin-3-yl)-6-oxo-5,6-dihydro-4H-thieno[2,3-c]pyrrol-2-yl)methyl)thiourea] | > 80% |
| Cc1cnc(NC(=O)NCc2scc3c2CN(C2CCC(=O)NC2=O)C3=O)nc1C(F)(F)F (stereo not shown) [II-40, 1-((5-(2,6-dioxopiperidin-3-yl)-4-oxo-5,6-dihydro-4H-thieno[3,4-c]pyrrol-1-yl)methyl)-3-(5-methyl-4-(trifluoromethyl)pyrimidin-2-yl)urea] | < 25% |
| Cc1ccc(CCCC(=O)NCc2scc3c2CN(C2CCC(=O)NC2=O)C3=O)cc1Cl (stereo not shown) [II-41, 4-(3-chloro-4-methylphenyl)-N-((5-(2,6-dioxopiperidin-3-yl)-4-oxo-5,6-dihydro-4H-thieno[3,4-c]pyrrol-1-yl)methyl)butanamide] | 25 to 50% |
| O=C1CCC(N2Cc3cc(CNC(=O)Nc4c(Cl)cccc4Cl)sc3C2=O)C(=O)N1 (stereo not shown) [II-42, 1-(2,6-dichlorophenyl)-3-((5-(2,6-dioxopiperidin-3-yl)-6-oxo-5,6-dihydro-4H-thieno[2,3-c]pyrrol-2-yl)methyl)urea] | < 25% |
| O=C1CCC(N2Cc3c(csc3CNC(=O)Nc3c(Cl)cccc3Cl)C2=O)C(=O)N1 (stereo not shown) [II-43, 1-(2,6-dichlorophenyl)-3-((5-(2,6-dioxopiperidin-3-yl)-4-oxo-5,6-dihydro-4H-thieno[3,4-c]pyrrol-1-yl)methyl)urea] | 25 to 50% |
| CN(C)c1cc(NC(=O)NCc2cc3c(s2)C(=O)N(C2CCC(=O)NC2=O)C3)ccc1F (stereo not shown) [II-45, 1-(3-(dimethylamino)-4-fluorophenyl)-3-((5-(2,6-dioxopiperidin-3-yl)-6-oxo-5,6-dihydro-4H-thieno[2,3-c]pyrrol-2-yl)methyl)urea] | > 80% |
| Cc1ccc(NC(=O)NCc2cc3c(s2)C(=O)N(C2CCC(=O)NC2=O)C3)cc1O (stereo not shown) [II-46, 1-((5-(2,6-dioxopiperidin-3-yl)-6-oxo-5,6-dihydro-4H-thieno[2,3-c]pyrrol-2-yl)methyl)-3-(3-hydroxy-4-methylphenyl)urea] | 25 to 50% |
| CCN(CC)c1cc(NC(=O)NCc2cc3c(s2)C(=O)N(C2CCC(=O)NC2=O)C3)ccc1C (stereo not shown) [II-47, 1-(3-(diethylamino)-4-methylphenyl)-3-((5-(2,6-dioxopiperidin-3-yl)-6-oxo-5,6-dihydro-4H-thieno[2,3-c]pyrrol-2-yl)methyl)urea] | > 80% |
